US8258100B2, “Ligand/lytic peptide methods of use” (Board of Supervisors of Louisiana State University and …, priority 1997, dated 2012)
Where a SMILES comes first, the peptide text is derived from it.

Columns and labels:
[1] = target: T1, LH receptors (Bos taurus, UniProt Q28005); assay: binding of bLH fragment to LH receptors on granulosa cells; set-up: species or system bovine; settings: data not shown
T1 construct: endogenous in cells; host or cells: primary bovine granulosa cells from pre-ovulatory follicles
Text: (§1) Stimulation of target cell hormone production was not required for cell lysis.

[2] = system: LH receptors on the target granulosa cells; assay: steroid hormone production by granulosa cells; type: cell-based, bovine; settings: data not shown
Text: as §1

[3] = system: Sprague-Dawley female rats; assay: Sprague-Dawley female rats, single intravenous treatment, necropsy at 48 or 96 hours, PAS stain of pituitary; type: in vivo, rat; settings: D-hecate 674 μg, GnRH 334 μg, GnRH-hecate 1 mg
Experimental: Eight sexually mature, Sprague-Dawley female rats were randomly assigned to one of eight treatments. Each group of rats received a single treatment intravenously, as described below. Rats were sacrificed and necropsied either 48 or 96 hours after treatment. The ovaries, uterus, pancreas, liver, spleen, lungs, heart, thyroid, and adrenal glands were fixed in 10% buffered formalin; sectioned; and stained with H&E (hematoxylin and eosin) stain; except that the pituitary glands were stained with PAS (periodic acid-Schiff) stain with no counter-stain. The treatments were selected so that each animal received an equimolar amount of the compound with which it was treated.

[4] = system: Diatraea saccharalis; assay: fertility of sugar cane borer after inoculation of late-stage pupae; type: in vivo; settings: 10 pupae inoculated, 1.0 μL of 1.35 mM peptide in saline
Experimental: Late-stage Diatraea saccharalis (sugar cane borer) pupae were inoculated with 1.0 μL of saline solution containing 1.35 mM concentration of peptide as stated, or saline alone as control. The pupae were allowed to complete metamorphosis. […] Adult female moths were allowed to mate with treated males, and then lay eggs. The viability of the eggs was measured by counting the number hatching into larvae.

[5] = target: T2, GnRH receptor (Rattus norvegicus, UniProt P30969); assay: displacement of radiolabelled monoiodinated-GnRH from rat pituitary membranes; type: binding
T2 construct: specifically displaced radiolabelled monoiodinated-GnRH from rat pituitary membranes; from tissue; host or cells: rat pituitary membranes
T2 sequence (P30969 1-327): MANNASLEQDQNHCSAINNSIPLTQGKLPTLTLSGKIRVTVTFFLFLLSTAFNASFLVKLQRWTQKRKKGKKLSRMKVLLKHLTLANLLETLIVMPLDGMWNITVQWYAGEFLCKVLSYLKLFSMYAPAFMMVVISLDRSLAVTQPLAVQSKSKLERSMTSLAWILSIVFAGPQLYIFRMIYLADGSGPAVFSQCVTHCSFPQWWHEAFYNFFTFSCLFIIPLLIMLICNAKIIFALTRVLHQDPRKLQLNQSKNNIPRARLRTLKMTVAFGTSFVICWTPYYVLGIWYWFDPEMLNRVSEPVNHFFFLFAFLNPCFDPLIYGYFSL
Text: We also synthesized D-Lys^6GnRH (SEQ. ID NO. 13), so that hecate could be conjugated to the D-Lys^6, a position that could minimize interference with binding of the GnRH domain to the GnRH receptor. These synthetic peptides specifically displaced radiolabelled monoiodinated-GnRH from rat pituitary membranes.

[6] = system: bovine small luteal cells; assay: in vitro lysis of bovine small luteal cells (Trypan Blue exclusion, lactic dehydrogenase release); type: cell-based, cattle; settings: 22 hr
Experimental: We studied in vitro lysis of bovine luteal cells with GnRH-hecate conjugate and with hecate-bLH conjugate (SEQ. ID NO. 12). (The bLH component of the conjugate is a 15-mer fragment of the beta chain of luteinizing hormone, SEQ. ID NO. 11). Small luteal cells were collected from cattle corpora lutea post-slaughter.
Small luteal cells in culture were incubated with one of the following treatments for 22 hours, and were then examined for viability using Trypan Blue exclusion and release of lactic dehydrogenase.

[7] = system: bovine granulosa cells; assay: in vitro lysis of bovine granulosa cells; type: cell-based; settings: 1 μM
Text: We also studied in vitro lysis of bovine granulosa cells with GnRH-hecate conjugate and with hecate-bLH conjugate. Granulosa cells were isolated from bovine pre-ovulatory follicles. (Granulosa cells are hormonally active cells with numerous LH receptors.) Our experiments with granulosa cells were otherwise generally similar to those described above for Examples 24-31.

[8] = system: DU145 cells; assay: in vitro lysis of human prostate cancer cells, Trypan blue exclusion; type: cell-based; settings: 22 hours; GnRH-hecate 50 μM; free hecate 30 μM; hecate-bLH 90 or 60 μM
Text: (§2) LNCaP FGC and DU145 human prostate cancer cell lines were purchased from the American Type Culture Collection (ATCC, Rockville Md.), ATCC accession numbers CRL 1740 and HTB-81, respectively. The LNCaP FGC adenocarcinoma cell line was originally obtained from a person. LNCaP FGC cells are sensitive to dihydrotestosterone and to estrogens (A+). The DU145 carcinoma was originally isolated from the brain of a person with metastatic carcinoma of the prostate; this cell line is not sensitive to steroid hormones (A−).
(§3) Cells were detached from culture flasks, and 1000 cells/well were transferred to 24 well culture plates. The cells were incubated for 24 hours with 10% calf serum. Cells were subsequently incubated without serum for 48 hours. Cells were then incubated for 22 hours with one of the following treatments:
(§4) Trypan blue exclusion was used to assess viability of the cells after treatment. […] However, treatment with a lytic peptide alone may not be selective in vivo unless specific cell types are separately stimulated, for example by hormones controlling their activity.

[9] = system: LNCaP FGC cells; assay: as above; type: cell-based
Text: as §2, §3, §4

T1 sequence (Q28005 27-701): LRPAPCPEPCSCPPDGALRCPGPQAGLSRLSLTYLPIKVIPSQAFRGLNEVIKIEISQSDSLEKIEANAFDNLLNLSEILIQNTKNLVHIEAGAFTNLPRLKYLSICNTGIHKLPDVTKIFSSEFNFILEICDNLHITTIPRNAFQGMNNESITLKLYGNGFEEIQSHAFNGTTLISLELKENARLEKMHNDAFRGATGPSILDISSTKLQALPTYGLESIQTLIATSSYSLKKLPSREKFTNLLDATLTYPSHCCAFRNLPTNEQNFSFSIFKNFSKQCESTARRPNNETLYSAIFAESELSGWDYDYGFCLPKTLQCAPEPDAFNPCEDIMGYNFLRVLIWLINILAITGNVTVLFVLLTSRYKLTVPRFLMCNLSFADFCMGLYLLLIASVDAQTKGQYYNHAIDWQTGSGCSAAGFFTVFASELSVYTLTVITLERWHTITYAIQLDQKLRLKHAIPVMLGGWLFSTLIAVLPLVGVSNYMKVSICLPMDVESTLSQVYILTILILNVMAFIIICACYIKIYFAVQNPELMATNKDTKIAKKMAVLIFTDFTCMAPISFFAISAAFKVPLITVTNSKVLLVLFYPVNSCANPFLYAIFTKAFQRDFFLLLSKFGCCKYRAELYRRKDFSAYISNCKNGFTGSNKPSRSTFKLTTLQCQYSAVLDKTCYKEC

## 15-mer fragment of the bLH subunit: 15-mer fragment of the beta chain of luteinizing hormone, receptor binding site (SEQ. ID NO. 11) (SYAVALSCQCALCRR)
[1]
  binding to LH receptors on granulosa cells: specifically bound to LH receptors
[2]
  production of steroid hormones: did not initiate the production of steroid hormones

## CC(C)C[C@@H](NC(=O)[C@@H](C)NC(=O)[C@@H](CCCCN)NC(=O)[C@@H](CCCCN)NC(=O)[C@@H](CC(C)C)NC(=O)[C@@H](C)NC(=O)[C@@H](CCCCN)NC(=O)[C@@H](CCCCN)NC(=O)[C@@H](CC(C)C)NC(=O)[C@@H](CCCCN)NC(=O)[C@@H](CCCCN)NC(=O)[C@@H](CC(C)C)NC(=O)[C@@H](C)NC(=O)[C@@H](CCCCN)NC(=O)[C@@H](CCCCN)NC(=O)[C@@H](CC(C)C)NC(=O)[C@@H](C)NC(=O)[C@@H](CCCCN)NC(=O)[C@@H](CC(C)C)NC(=O)[C@@H](C)NC(=O)[C@@H](CC(C)C)NC(=O)[C@@H](C)NC(=O)[C@H](N)Cc1ccccc1)C(=O)O [D-hecate, reference compound] (HELM PEPTIDE1{[dF].[dA].[dL].[dA].[dL].[dK].[dA].[dL].[dK].[dK].[dA].[dL].[dK].[dK].[dL].[dK].[dK].[dA].[dL].[dK].[dK].[dA].[dL]}$$$$V2.0)
[3]
  gross lesions in the organs: No gross lesions
[4]
  pupae completing metamorphosis into adult moths: Six

## D-Lys^6GnRH-hecate: hecate conjugated to the D-Lys^6 of D-Lys^6GnRH
[5]; rat pituitary membranes
  displacement of radiolabelled monoiodinated-GnRH, as measured by cpm: comparable to (and actually slightly greater than) displacement by native mammalian GnRH

## D-Lys^6GnRH: GnRH analog with D-Lys at position 6 (SEQ. ID NO. 13)
[5]; molar basis over a 1000-fold concentration range (n=6)
  displacement of radiolabelled peptide relative to equimolar native GnRH: 187%±8%

## hecate-bLH: conjugate of hecate and a 15-mer fragment of the beta chain of luteinizing hormone (SEQ. ID NO. 12) (FALALKALKKALKKLKKALKKALSYAVALSCQCALCRR)
[6]; 10, 5, 1 μM
  number of cells killed relative to hecate alone at the same concentrations: approximately twice the number of cells as were killed by hecate alone
[6]; versus hecate alone
  lactic dehydrogenase activity (cell killing): killed a significantly greater number of cells than did hecate alone
[6]; all three doses (10, 5, 1 μM)
  cell death of small luteal cells versus hecate alone: significant increases in cell death as compared to treatment with hecate alone
[7]
  levels of lactic dehydrogenase released: significantly higher than the levels of enzyme released following treatment with 1 μM hecate alone
  number of target cells killed relative to hecate alone: about twice the number of target cells as did hecate alone
[8]
  killing of cells (viability): killed almost all DU145 cells
[9]; 22 hours, GnRH-hecate 50 μM, hecate-bLH 90 or 60 μM
  killing of cells (viability): had little effect
[9]; FSH pre-treatment, followed by 90 μM hecate-bLH
  sensitivity of cells to conjugate: more sensitive to the hecate-bLH conjugate than those that were not pre-treated
